Assay results from PubChem BioAssay AID1963965 (Molecular Pharmacology Branch, DTP, NCI, 2024).

Tested on: 996289-038-R-J1-PDC spheroid viability
Test: Anticancer human tumor 996289-038-R-J1-PDC patient-derived colon adenocarcinoma cell line growth inhibition [PI3K]
Details: spheroids with HUVEC and MSC; for IC50: curve of first compound; for viability, T/C: stronger effect = lower value
How it was run: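 Targeted small molecules plus PI3K inhibitors, half-log dose series from Cmax (default top 10 microM), were applied to heterotypic spheroids of cancer cells with HUVEC and MSCs. Viability indicated growth inhibition.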

[1] = second compound 0.00316 µM, first compound 0.0316 µM
[2] = second compound 0.00316 µM, first compound 0.1 µM
[3] = second compound 0.01 µM, first compound 0.0316 µM
[4] = second compound 0.01 µM, first compound 0.1 µM
[5] = second compound 0.0316 µM, first compound 0.0316 µM
[6] = second compound 0.0316 µM, first compound 0.1 µM
[7] = second compound 0.1 µM, first compound 0.0316 µM
[8] = second compound 0.1 µM, first compound 0.1 µM
[9] = second compound 0.316 µM, first compound 0.0316 µM
[10] = second compound 0.316 µM, first compound 0.1 µM
[11] = second compound 1 µM, first compound 0.0316 µM
[12] = second compound 1 µM, first compound 0.1 µM
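Also: spheroids exposed to compounds for seven days before viability read.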
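For viability, T/C in this document: luminescence used as a proxy for viable cell amount; percent viability relative to DMSO vehicle control as 100%.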

Structure (SMILES): CC(=O)c1c(C)c2cnc(Nc3ccc(N4CCNCC4)cn3)nc2n(C2CCCC2)c1=O + COc1c(OCCCN2CCOCC2)ccc2c3n(c(=NC(=O)c4cnc(N)nc4)nc12)CCN3
- IC50 (second compound 0.00316 µM): > 100 nM
- IC50 (second compound 0.01 µM): > 100 nM
- IC50 (second compound 0.0316 µM): > 100 nM
- IC50 (second compound 0.1 µM): > 100 nM
- IC50 (second compound 0.316 µM): < 0.316 nM
- IC50 (second compound 1 µM): < 0.316 nM
- viability, T/C (second compound 0.00316 µM, first compound 0.000316 µM): 99.3%
- viability, T/C (second compound 0.00316 µM, first compound 0.001 µM): 96.9%
- viability, T/C (second compound 0.00316 µM, first compound 0.00316 µM): 104%
- viability, T/C (second compound 0.00316 µM, first compound 0.01 µM): 94.2%
- viability, T/C [1]: 97.4%
- viability, T/C [2]: 83.1%
- viability, T/C (second compound 0.01 µM, first compound 0.000316 µM): 89.1%
- viability, T/C (second compound 0.01 µM, first compound 0.001 µM): 89.9%
- viability, T/C (second compound 0.01 µM, first compound 0.00316 µM): 80.2%
- viability, T/C (second compound 0.01 µM, first compound 0.01 µM): 90.8%
- viability, T/C [3]: 94.2%
- viability, T/C [4]: 73%
- viability, T/C (second compound 0.0316 µM, first compound 0.000316 µM): 66.1%
- viability, T/C (second compound 0.0316 µM, first compound 0.001 µM): 81.4%
- viability, T/C (second compound 0.0316 µM, first compound 0.00316 µM): 80.5%
- viability, T/C (second compound 0.0316 µM, first compound 0.01 µM): 81.8%
- viability, T/C [5]: 73.7%
- viability, T/C [6]: 70.6%
- viability, T/C (second compound 0.1 µM, first compound 0.000316 µM): 62.7%
- viability, T/C (second compound 0.1 µM, first compound 0.001 µM): 56%
- viability, T/C (second compound 0.1 µM, first compound 0.00316 µM): 59.4%
- viability, T/C (second compound 0.1 µM, first compound 0.01 µM): 55%
- viability, T/C [7]: 57.5%
- viability, T/C [8]: 49.8%
- viability, T/C (second compound 0.316 µM, first compound 0.000316 µM): 34.4%
- viability, T/C (second compound 0.316 µM, first compound 0.001 µM): 31.6%
- viability, T/C (second compound 0.316 µM, first compound 0.00316 µM): 39.1%
- viability, T/C (second compound 0.316 µM, first compound 0.01 µM): 31.3%
- viability, T/C [9]: 37.8%
- viability, T/C [10]: 29.4%
- viability, T/C (second compound 1 µM, first compound 0.000316 µM): 19.1%
- viability, T/C (second compound 1 µM, first compound 0.001 µM): 22%
- viability, T/C (second compound 1 µM, first compound 0.00316 µM): 21.5%
- viability, T/C (second compound 1 µM, first compound 0.01 µM): 16.6%
- viability, T/C [11]: 17.7%
- viability, T/C [12]: 15.9%

Structure (SMILES): CNC(=O)c1ccc(N2C(=S)N(c3ccc(C#N)c(C(F)(F)F)c3)C(=O)C2(C)C)cc1F + COc1c(OCCCN2CCOCC2)ccc2c3n(c(=NC(=O)c4cnc(N)nc4)nc12)CCN3
- IC50 (second compound 0.00316 µM): > 10000 nM
- IC50 (second compound 0.01 µM): > 10000 nM
- IC50 (second compound 0.0316 µM): > 10000 nM
- IC50 (second compound 0.1 µM): > 10000 nM
- IC50 (second compound 0.316 µM): < 31.6 nM
- IC50 (second compound 1 µM): < 31.6 nM
- viability, T/C [1]: 103%
- viability, T/C [2]: 92.2%
- viability, T/C (second compound 0.00316 µM, first compound 0.316 µM): 93.2%
- viability, T/C (second compound 0.00316 µM, first compound 1 µM): 106%
- viability, T/C (second compound 0.00316 µM, first compound 3.16 µM): 99.4%
- viability, T/C (second compound 0.00316 µM, first compound 10 µM): 125%
- viability, T/C [3]: 98%
- viability, T/C [4]: 89.8%
- viability, T/C (second compound 0.01 µM, first compound 0.316 µM): 103%
- viability, T/C (second compound 0.01 µM, first compound 1 µM): 88.9%
- viability, T/C (second compound 0.01 µM, first compound 3.16 µM): 87%
- viability, T/C (second compound 0.01 µM, first compound 10 µM): 106%
- viability, T/C [5]: 82.5%
- viability, T/C [6]: 78%
- viability, T/C (second compound 0.0316 µM, first compound 0.316 µM): 81%
- viability, T/C (second compound 0.0316 µM, first compound 1 µM): 67.5%
- viability, T/C (second compound 0.0316 µM, first compound 3.16 µM): 89.4%
- viability, T/C (second compound 0.0316 µM, first compound 10 µM): 92.4%
- viability, T/C [7]: 66.5%
- viability, T/C [8]: 66.2%
- viability, T/C (second compound 0.1 µM, first compound 0.316 µM): 64.8%
- viability, T/C (second compound 0.1 µM, first compound 1 µM): 67.7%
- viability, T/C (second compound 0.1 µM, first compound 3.16 µM): 58.7%
- viability, T/C (second compound 0.1 µM, first compound 10 µM): 65.9%
- viability, T/C [9]: 40.1%
- viability, T/C [10]: 33.2%
- viability, T/C (second compound 0.316 µM, first compound 0.316 µM): 34.5%
- viability, T/C (second compound 0.316 µM, first compound 1 µM): 39.8%
- viability, T/C (second compound 0.316 µM, first compound 3.16 µM): 40.3%
- viability, T/C (second compound 0.316 µM, first compound 10 µM): 27.6%
- viability, T/C [11]: 21.8%
- viability, T/C [12]: 19.9%
- viability, T/C (second compound 1 µM, first compound 0.316 µM): 18%
- viability, T/C (second compound 1 µM, first compound 1 µM): 20.1%
- viability, T/C (second compound 1 µM, first compound 3.16 µM): 19.1%
- viability, T/C (second compound 1 µM, first compound 10 µM): 13.8%
